Assay results as given in patent US8410094B2, “Amide compounds, their pharmaceutical compositions, their preparation method and their uses” (Shanghai Institute of Materia Medica, Chinese Academy of …, priority 2008, dated 2013).

Molecular target: T1, CCR5 (Homo sapiens, UniProt P51681)
T1 construct: expressed in transfected cells
Assay: Inhibition of CCR5: [35S]GTPγS binding assays (filtration, SPA-WGA) and calcium influx assay, 10 nM RANTES, CHO-CCR5
Assay type: biochemical
Conditions: for inhibition at 0.03 µM: compound at 30 nM, read-out: inhibition against CCR5 @30 nM; for inhibition at 0.03 µM / inhibition at 0.3 µM: 10 nM RANTES; for inhibition at 0.3 µM: compound at 300 nM, read-out: inhibition against CCR5 @300 nM; for IC50: inhibition of GTPγS binding induced by 10 nM RANTES, CHO-CCR5
Protocol: CCR5 belongs to G-Protein-Coupled Receptor (GPCR) family. The developing technology of GPCR-based drugs have been well-developed, among them, the experimental techniques such as ligand-receptor binding assay, GTPγS binding assay and Ca^2+ flux assay have been widely used in drug-screening related to chemokine receptors. The inhibitory activities of the compounds according to the present invention against CCR5 are measured by three methods, i.e., [^35S]GTPγS filter binding assay, SPA-WGA-based [^35S]GTPγS binding assay and calcium influx assay. At the same time, the antiviral activities in cell of the compounds according to the present invention are evaluated by using two kinds HIV-1 subtypes: H4DA5 cell model and PBMC system virus replication model.
A. [^35S]GTPγS Binding Assay
After binding with an agonist, CCR5 experiences a conformation change such that CCR5 interacts with G protein so as to active the G protein. G protein is a tripolymer composed of α-subunit and βγ-subunit. Since the ability of α-subunit binding to GTP depends on the interaction of CCR5 with the agonist, the ability of an agonist for activating CCR5 can be reflected by determining the amount of GTP binding to α-subunit. In a GTPγS binding assay, a ^35S-labeled GTP analogue GTPγS, which can bind with an activated α-subunit without being hydrolyzed, is used to replace GTP in order for eliminating the defect that the amount of GTP binding to G protein can not exactly reflect the activation of CCR5 due to the hydrolysis of GTO by GTPase and for convenience of detection. So, α-subunit binds with GDP when CCR5 is not activated, and after the activation of CCR5, α-subunit binds with GTPγS such that GTPγS irreversible binds to α-subunit. Therefore, the amount of [^35S]-GTPγS binding to α-subunit could reflect the level of CCR5 activated by an agonist. The ability of the agonist for activating CCR5 will decrease when an antagonist is added.
Such experiment has been referred to as GTPγS filtration assay in which [^35S]-GTPγS bound with the free G protein could be separated by membrane filtration.
Alternatively, SPA (Scintillation Proximity Assay) technique can be used to detect the [^35S]-GTPγS bound to G protein, which is called SPA-WGA-based [35S]GTPγS binding assay. The principle of SPA technique is as follows. Sub-atomic particles released during the decay of radioactive atoms, for example β-ray (electron), can excite microspheres at a sufficiently close distance to emit light so as to be detected by a Scintillation Counter. In an aqueous solution, most of the energy of these rays is absorbed by the solvent, and the traveling distance of these rays is limited.
The activation of G protein by CCR5 is determined by the following experiments.
CHO (Chinese hamster ovary cell) permanent cell line expressing CCR5 (CHO-CCR5) (a cell line constructed by Shanghai Targetdrug Ltd.) was lysed with a lysis buffer (5 mM Tris-HCl, pH 7.5, 5 mM EDTA and 5 mM EGTA) and then centrifugated at 15,000×g for 10 min to obtain cell membrane. After the cell membrane was resuspended in a reaction buffer (5 mM Tris-HCl, pH 7.5, 5 mM MgCl2, 1 mM EGTA, 100 mM NaCl), the protein concentration was determined using Bioford Protein Assay Kit manufactured by Bio-Rad Laboratories Inc. Subsequently, GTPγS binding assay was performed in the reaction buffer, wherein the reaction system was 100 μL containing 10 μg membrane protein, 40 μM GDP and 0.5 nM [^35S]-GTPγS (1200 Ci/mmol). After the compound to be tested (the compound was first dissolved in DMSO and then diluted in gradient with the reaction buffer according to the specific situation, wherein the final concentration of DMSO was 1% (v/v) in the whole reaction system) was added and shaken to mix homogeneously, the reaction tube was incubated at 30° C. for 1 hour. After the reaction finished, the tube was placed on ice, and the reaction mixture was diluted with PBS to quench the reaction and filtered under reduced pressure with a GF/C filter membrane. […]

T1 sequence (P51681 whole entry): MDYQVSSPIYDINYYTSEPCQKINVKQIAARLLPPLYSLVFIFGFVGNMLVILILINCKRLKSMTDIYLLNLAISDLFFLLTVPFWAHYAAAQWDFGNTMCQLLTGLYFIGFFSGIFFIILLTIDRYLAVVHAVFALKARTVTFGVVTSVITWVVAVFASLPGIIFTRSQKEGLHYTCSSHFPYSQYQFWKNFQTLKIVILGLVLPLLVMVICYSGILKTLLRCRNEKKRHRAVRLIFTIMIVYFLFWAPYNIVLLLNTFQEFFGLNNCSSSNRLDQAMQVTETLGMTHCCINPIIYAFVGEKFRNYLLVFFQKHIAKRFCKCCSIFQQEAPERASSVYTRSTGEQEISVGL

SMILES | inhibition at 0.03 µM [%] | inhibition at 0.3 µM [%] | IC50 [nM] | further results
CC(=O)N1CCC(C(=O)N(CCCN2C3CCC2CC(NC(=O)c2cccnc2)C3)c2ccc(C)c(Cl)c2)CC1 (stereo not drawn) [Compound 7t, 1-acetyl-N-(3-chloro-4-methylphenyl)-N-(3-(3-exo-nicotinamido-8-azabicyclo[3.2.1]oct-8-yl)propyl)-4-piperidinylcarboxamide] | 3.36 | 15.6 | – | –
CC(=O)N1CCC(C(=O)N(CCCN2C3CCC2CC(NC(=O)c2ccc(C(F)(F)F)cc2)C3)c2ccc(C)c(Cl)c2)CC1 (stereo not drawn) [Compound 7u, 1-acetyl-N-(3-chloro-4-methylphenyl)-N-(3-(3-exo-p-trifluoromethylbenzoylamido-8-azabicyclo[3.2.1]oct-8-yl)propyl)-4-piperidinylcarboxamide] | 26.5 | 96.3 | – | –
CC(=O)N1CCC(C(=O)N(CCCN2C3CCC2CC(NC(=O)CCc2cccnc2)C3)c2ccc(C)c(Cl)c2)CC1 (stereo not drawn) [Compound 7v, 1-acetyl-N-(3-chloro-4-methylphenyl)-N-(3-(3-exo-(3-(3-pyridyl)propionamido)-8-azabicyclo[3.2.1]oct-8-yl)propyl)-4-piperidinylcarboxamide] | 17.5 | 76.7 | – | –
CC(=O)N1CCC(C(=O)N(CCCN2[C@@H]3CC[C@H]2C[C@H](NC(=O)COc2ccc4ccccc4c2)C3)c2ccc(C)c(Cl)c2)CC1 [Compound 7w, 1-acetyl-N-(3-chloro-4-methylphenyl)-N-(3-(3-exo-(2-(2-naphthoxy)acetamido)-8-azabicyclo[3.2.1]oct-8-yl)propyl)-4-piperidinylcarboxamide] | – | – | 18.1 | –
CC(=O)N1CCC(C(=O)N(CCCN2[C@@H]3CC[C@H]2C[C@H](NC(=O)COc2ccc(Cl)cc2)C3)c2ccc(C)c(Cl)c2)CC1 [Compound 7x, 1-acetyl-N-(3-chloro-4-methylphenyl)-N-(3-(3-exo-(2-p-chlorophenoxy)acetamido-8-azabicyclo[3.2.1]oct-8-yl)propyl)-4-piperidinylcarboxamide] | – | – | 27.3 | –
CC(=O)N1CCC(C(=O)N(CCCN2[C@@H]3CC[C@H]2C[C@H](NC(=O)COc2ccc(Cl)cc2Cl)C3)c2ccc(C)c(Cl)c2)CC1 [Compound 7y, 1-acetyl-N-(3-chloro-4-methylphenyl)-N-(3-(3-exo-(2-(2,4-dichlorophenoxy)acetamido)-8-azabicyclo[3.2.1]oct-8-yl)propyl)-4-piperidinylcarboxamide] | – | – | 24.6 | –
CNS(=O)(=O)c1ccc(CC(=O)N[C@@H]2C[C@H]3CC[C@@H](C2)N3CCCN(C(=O)C2CCN(C(C)=O)CC2)c2ccc(C)c(Cl)c2)cc1 [Compound 7z, 1-acetyl-N-(3-chloro-4-methylphenyl)-N-(3-(3-exo-(2-(4-(N-methylsulphonyl)phenyl)acetamido)-8-azabicyclo[3.2.1]oct-8-yl)propyl)-4-piperidinylcarboxamide] | – | – | 17.3 | –
CC(=O)N1CCC(C(=O)N(CCCN2[C@@H]3CC[C@H]2C[C@H](NS(C)(=O)=O)C3)c2ccc(C)c(Cl)c2)CC1 [Compound 9a, 1-acetyl-N-(3-chloro-4-methylphenyl)-N-(3-(3-exo-(methylsulfonyl amido)-8-azabicyclo[3.2.1]oct-8-yl)propyl)-4-piperidinylcarboxamide] | – | – | 20.1 | –
CC(=O)N1CCC(C(=O)N(CCCN2[C@@H]3CC[C@H]2C[C@H](NS(=O)(=O)c2ccc([N+](=O)[O-])cc2)C3)c2ccc(C)c(Cl)c2)CC1 [Compound 9c, 1-acetyl-N-(3-chloro-4-methylphenyl)-N-(3-(3-exo-(4-nitrophenylsulfonylamido)-8-azabicyclo[3.2.1]oct-8-yl)propyl)-4-piperidinylcarboxamide] | – | – | 3.3 | –
CC(=O)N1CCC(C(=O)N(CCCN2[C@@H]3CC[C@H]2C[C@H](NS(=O)(=O)c2cccc([N+](=O)[O-])c2)C3)c2ccc(C)c(Cl)c2)CC1 [Compound 9d, 1-acetyl-N-(3-chloro-4-methylphenyl)-N-(3-(3-exo-(3-nitrophenylsulfamide)-8-azabicyclo[3.2.1]oct-8-yl)propyl)-4-piperidinylcarboxamide] | – | – | 2.59 | –
CC(=O)N1CCC(C(=O)N(CCCN2[C@@H]3CC[C@H]2C[C@H](NS(=O)(=O)Cc2ccccc2)C3)c2ccc(C)c(Cl)c2)CC1 [Compound 9e, 1-acetyl-N-(3-chloro-4-methylphenyl)-N-(3-(3-exo-(phenylmethylsulfonylamido)-8-azabicyclo[3.2.1]oct-8-yl)propyl)-4-piperidinylcarboxamide] | – | – | 7.4 | –
CC(=O)N1CCC(C(=O)N(CCCN2[C@@H]3CC[C@H]2C[C@H](NS(=O)(=O)c2cccs2)C3)c2ccc(C)c(Cl)c2)CC1 [Compound 9f, 1-acetyl-N-(3-chloro-4-methylphenyl)-N-(3-(3-exo-(thienyl-2-sulfonylamido)-8-azabicyclo[3.2.1]oct-8-yl)propyl)-4-piperidinylcarboxamide] | – | – | 2.53 | –
COc1ccc(NC(=O)NC2CC3CCC(C2)N3CCCN(C(=O)C2CCN(C(C)=O)CC2)c2ccc(C)c(Cl)c2)cc1 (stereo not drawn) [Compound 10a, 1-acetyl-N-(3-chloro-4-methylphenyl)-N-(3-(3-exo-(3-(4-methoxylphenyl)ureylene)-8-azabicyclo[3.2.1]oct-8-yl)propyl)-4-piperidinylcarboxamide] | – | – | – | inhibition against CCR5 (class symbol in IC50 column) (class by inhibition at 30 nM or 300 nM): ++ (the compound at 300 nM has an inhibition against CCR5 of more thant 50% at 300 nM)
CC(=O)N1CCC(C(=O)N(CCCN2C3CCC2CC(NC(=O)Nc2ccc(Cl)c(C(F)(F)F)c2)C3)c2ccc(C)c(Cl)c2)CC1 (stereo not drawn) [Compound 10b, 1-acetyl-N-(3-(3-(3-(4-chloro-3-(trifluoromethyl)phenyl)ureylene)-8-azabicyclo[3.2.1]oct-8-yl)propyl)-N-(3-chloro-4-methylphenyl)-4-piperidinylcarboxamide] | – | – | 28.7 | –
CC(=O)N1CCC(C(=O)N(CCCN2C3CCC2CC(NC(=O)Nc2ccccc2)C3)c2ccc(C)c(Cl)c2)CC1 (stereo not drawn) [Compound 10c, 1-acetyl-N-(3-(3-(3-phenylureylene)-8-azabicyclo[3.2.1]oct-8-yl)propyl)-N-(3-chloro-4-methylphenyl)-4-piperidinylcarboxamide] | 33.5 | 41.9 | – | –
CC(=O)N1CCC(C(=O)N(CCCN2C3CCC2CC(n2c(C)nnc2C(C)C)C3)c2ccc(C)c(Cl)c2)CC1 (stereo not drawn) [Compound 11, 1-acetyl-N-(3-chloro-4-methylphenyl)-N-(3-(3-exo-(3-isopropyl-5-methyl-4-hydro-1,2,4-triazol-4-yl)-8-azabicyclo[3.2.1]oct-8-yl)propyl)-4-piperidinylcarboxamide] | 48.8 | 98.4 | – | –
Cc1ccc(S(=O)(=O)NC2CC3CCC(C2)N3CCCN(C(=O)C2CCCCC2)c2ccc(C)c(Cl)c2)cc1 (stereo not drawn) [Compound 15a, N-(3-chloro-4-methylphenyl)-N-(3-(3-exo-(4-tolylsulfonamido)-8-azabicyclo[3.2.1]oct-8-yl)propyl)cyclohexylcarboxamide] | 45.2 | 100 | – | –
Cc1ccc(S(=O)(=O)N[C@@H]2C[C@H]3CC[C@@H](C2)N3CCCN(C(=O)C2CCN(S(C)(=O)=O)CC2)c2ccc(C)c(Cl)c2)cc1 [Compound 15b, N-(3-chloro-4-methylphenyl)-N-(3-(3-exo-(4-tolylsulfonamido)-8-azabicyclo[3.2.1]oct-8-yl)propyl)-1-(methylsulfonyl)-4-piperidinylcarboxamide] | – | – | 2.06 | –
